Assays:
PRMT5 = target: T1, PRMT5 (Homo sapiens, UniProt O14744); test: PRMT5 Cell Target Engagement (TE) Assay; type: cell-based; settings: MCF-7 cells, treated for 3 days, symmetric dimethylation of arginine (SDMA) by high content imaging
T1 construct: seeded with 4000 MCF-7 cells in 30 μl media; endogenous in cells; host or cells: MCF-7 cells
Procedure, shortened: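 MCF-7 cells treated 3 days at 37 °C with a ten-point 1:3 titration from 10000 nM. Fixed cells immunostained with anti-SDMA and Alexa488 secondary; nuclear fluorescence quantified by high-content imaging versus DMSO wells, with IC50 from a 4-parameter fit.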

[1] = target: T2, PRMT5-MEP50 enzyme complex (Homo sapiens, UniProt O14744); test: PRMT5-MEP50 Enzyme Methylation Assay (Version A); type: biochemical
T2 construct: Full-length (FL)-PRMT5-MEP50 enzyme complex (recombinant proteins from baculovirus-transfected Sf21 cells: FL-PRMT5; MW=73837 kDa and FL-MEP50; MW=38614); made in house; host or cells: baculovirus-transfected Sf21 cells
Protocol: PRMT5-MEP50 Enzyme Methylation Assay (Version A)
PRMT5-MEP50 biochemical assay is a direct measurement of the methylation activity of the enzyme complex on a short peptide substrate derived from the N-terminus of H4 histone. Methylation experiment was performed with recombinant PRMT5-MEP50 protein complex. The assessment of inhibitory effect of small molecules was measured by the effectiveness of the compounds to inhibit this reaction (EC50).
In this assay, the potency (EC50) of each compound was determined from a twenty-point (1:2 serial dilution; top compound concentration of 100000 nM) titration curve using the following outlined procedure. To each well of a white ProxiPlus 384 well-plate, 100 nL of compound (1% DMSO in final assay volume of 10 μL) was dispensed, followed by the addition of 8 μL of 1× assay buffer (50 mM Bicine pH 8.0, 1 mM DTT, 0.004% Tween20, 0.01% BSA) containing 1.25 nM of Full-length (FL)-PRMT5-MEP50 enzyme complex (recombinant proteins from baculovirus-transfected Sf21 cells: FL-PRMT5; MW=[…] and FL-MEP50; MW=38614) and 1 μL of 150 μM S-(5′-Adenosyl)-L-Methionine Chloride (SAM). A plate was sealed and placed in a 37° C. humidified chamber for a 60 minutes pre-incubation with compound. Subsequently, each reaction was initiated by the addition of 1 μL 1× assay buffer containing 750 nM biotinylated H4R3 (MeI) peptide. The final reaction in each well of 10 μL consists of 1.0 nM PRMT5-MEP50, 75 nM biotinylated-peptide, and 15 μM SAM. Methylation reactions were allowed to proceed for 150 minutes in a sealed plate at 37° C. Reactions were immediately quenched by the addition of 1 μL of 5% formic acid. A plate was then frozen and shipped to SAMDI™ Tech Inc. to determine the percent conversion from H4R3 (MeI) to H4R3 (Me2). Dose-response curves were generated by plotting percent effect (% product conversion; Y-axis) vs. Log 10 compound concentrations (X-axis). EC50 values were determined by non-linear regression according to models for either sigmoidal (4 parameters) or biphasic (7 parameters) dose-response curves.

[2] = target: T2, PRMT5-MEP50 enzyme complex; test: PRMT5-MEP50 Enzyme Methylation Assay (Version B); type: biochemical
Procedure, shortened: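 Recombinant full-length PRMT5-MEP50 (0.5 nM, Sf21-expressed) pre-incubated 30 min at 37 °C with compound (20-point, 1:2, top 100000 nM), then reacted 150 min at 37 °C with 75 nM biotinylated H4R3 peptide and 15 μM SAM in Bicine pH 8.0. Formic acid quench; SAMDI MS conversion to Me2; EC50 by sigmoidal or biphasic fit.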

[3] = only one EC50 shown: 4 parameters single site sigmoidal model, 60 min pre-incubation with SAM, read-out: Enzyme Methylation Assay Version A (EC50)
[4] = first of two EC50s: 7 parameters biphasic model, read-out: Enzyme Methylation Assay Version A (EC50_1)
[5] = second of two EC50s: 7 parameters biphasic model, read-out: Enzyme Methylation Assay Version A (EC50_2)
[6] = first of two EC50s: 7 parameters biphasic model, read-out: Enzyme Methylation Assay Version B (EC50_1)
[7] = second of two EC50s: 7 parameters biphasic model, read-out: Enzyme Methylation Assay Version B (EC50_2)

T1 sequence (O14744 whole entry): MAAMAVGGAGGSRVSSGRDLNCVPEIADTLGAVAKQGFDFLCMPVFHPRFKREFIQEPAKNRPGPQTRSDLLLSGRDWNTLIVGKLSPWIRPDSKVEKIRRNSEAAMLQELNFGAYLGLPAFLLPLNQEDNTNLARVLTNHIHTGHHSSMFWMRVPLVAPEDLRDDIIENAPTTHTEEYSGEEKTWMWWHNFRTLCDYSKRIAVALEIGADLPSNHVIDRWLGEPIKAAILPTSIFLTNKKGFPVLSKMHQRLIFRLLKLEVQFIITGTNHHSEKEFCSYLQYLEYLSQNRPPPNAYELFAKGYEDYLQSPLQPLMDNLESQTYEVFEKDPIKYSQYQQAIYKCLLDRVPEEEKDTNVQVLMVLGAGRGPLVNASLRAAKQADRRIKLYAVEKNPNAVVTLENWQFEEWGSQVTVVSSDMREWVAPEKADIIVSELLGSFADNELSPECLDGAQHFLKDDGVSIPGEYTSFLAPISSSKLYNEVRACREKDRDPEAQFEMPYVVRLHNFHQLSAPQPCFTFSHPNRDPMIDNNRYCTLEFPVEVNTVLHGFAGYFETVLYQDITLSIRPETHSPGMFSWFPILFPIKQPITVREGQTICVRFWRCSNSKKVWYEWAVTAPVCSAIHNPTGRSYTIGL
T1 sequence (Q9BQA1 whole entry partner): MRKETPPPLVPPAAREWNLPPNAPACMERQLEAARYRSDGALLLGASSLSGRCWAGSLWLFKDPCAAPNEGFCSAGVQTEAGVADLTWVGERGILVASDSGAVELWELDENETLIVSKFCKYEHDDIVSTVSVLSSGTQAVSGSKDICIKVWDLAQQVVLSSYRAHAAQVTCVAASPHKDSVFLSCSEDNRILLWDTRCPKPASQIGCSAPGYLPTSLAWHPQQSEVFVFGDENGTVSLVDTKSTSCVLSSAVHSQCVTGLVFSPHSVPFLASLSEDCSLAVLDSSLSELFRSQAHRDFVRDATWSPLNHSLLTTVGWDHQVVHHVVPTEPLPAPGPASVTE
T2 sequence (O14744 whole entry): as the sequence (O14744 whole entry) above
T2 sequence (Q9BQA1 whole entry partner): as the sequence (Q9BQA1 whole entry partner) above

Row | SMILES | EC50 (PRMT5) [nM] | EC50 [1, 3] [nM] | EC50 [1, 4] [nM] | EC50 [1, 5] [nM] | EC50 [2, 6] [nM] | EC50 [2, 7] [nM]
1 | O=C(c1cn2cc(Br)ccc2n1)N1CC[C@H](N2CCc3ccccc3C2)[C@@H](O)C1 (single isomer, unassigned) [Example 1] | 9.8 | 1.1 |  |  |  | 
2 | CC(=O)N1CCC(Nc2cc(C(=O)N3CCC(N4CCc5ccccc5C4)C(O)C3(C)C)ccn2)CC1 (single isomer, unassigned) [Example 22, l-(4-((4-(4-(3,4-dihydroisoquinolin-2(1H)-yl)-3-hydroxy-2,2-dimethylpiperidine-1-carbonyl)pyridin-2-yl)amino)piperidin-1-yl)ethan-1-one] | > 10000 |  | 159 | 58900 |  | 
3 | CC(=O)N1CCC(Nc2cc(C(=O)N3CCC(N4CCc5ccccc5C4)C(O)C3(C)C)ccn2)CC1 (single isomer, unassigned) [Example 23, l-(4-((4-(4-(3,4-dihydroisoquinolin-2(1H)-yl)-3-hydroxy-2,2-dimethylpiperidine-1-carbonyl)pyridin-2-yl)amino)piperidin-1-yl)ethan-1-one] | 4690 |  | ~36 | 31600 |  | 
4 | COC(C)c1cc(Br)cn2cc(C(=O)N3CC[C@H](N4CCc5ccccc5C4)[C@@H](O)C3)nc12 (single isomer, unassigned) [Example 68, (6-bromo-8-((R or S)-1-methoxyethyl)imidazo[1,2-a]pyridin-2-yl)((3S,4S)-4-(3,4-dihydroisoquinolin-2(1H)-yl)-3-hydroxypiperidin-1-yl)methanone] | 2.2 | 0.4 |  |  |  | 
5 | O=C1Nc2cc(C(=O)N3CC[C@H](N4CCc5ccccc5C4)[C@@H](O)C3)ccc2OC1C1CC1 (single isomer, unassigned) [Example 80] | 2.5 | 0.7 |  |  |  | 
6 | O=C1Nc2cc(C(=O)N3CC[C@H](N4CCc5ccccc5C4)[C@@H](O)C3)ccc2OC1C1CC1 (single isomer, unassigned) [Example 81] | 59 |  | 1.6 | 5010 |  | 
7 | CC1(C)CC(=O)Nc2cc(C(=O)N3CC[C@H](N4CCc5ccccc5C4)[C@@H](O)C3)ccc21 [Example 96, 7-((3S,4S)-4-(3,4-dihydroisoquinolin-2(1H)-yl)-3-hydroxypiperidine-1-carbonyl)-4,4-dimethyl-3,4-dihydroquinolin-2(1H)-one] | 331 |  |  |  | ~14 | 15100
8 | CC1(C)OC(=O)Nc2cc(C(=O)N3CC[C@H](N4CCc5ccccc5C4)[C@@H](O)C3)ccc21 [Example 97, 7-((3S,4S)-4-(3,4-dihydroisoquinolin-2(1H)-yl)-3-hydroxypiperidine-1-carbonyl)-4,4-dimethyl-1,4-dihydro-2H-benzo[d][1,3]oxazin-2-one] | 59 |  |  |  | 5.4 | 2850
9 | CC1(C)OC(=O)Nc2cc(C(=O)N3CC[C@@H](N4CCc5ccccc5C4)[C@H](O)C3)ccc21 [Example 98, 7-((3R,4R)-4-(3,4-dihydroisoquinolin-2(1H)-yl)-3-hydroxypiperidine-1-carbonyl)-4,4-dimethyl-1,4-dihydro-2H-benzo[d][1,3]oxazin-2-one] | 5830 |  |  |  | ~118 | > 100000
10 | CS(=O)(=O)N1CCC(Nc2cc(C(=O)N3CC[C@H](N4CCc5ccccc5C4)[C@@H](O)C3)c(F)cn2)CC1 [Example 105, ((3S,4S)-4-(3,4-dihydroisoquinolin-2(1H)-yl)-3-hydroxypiperidin-1-yl)(5-fluoro-2-((1-(methylsulfonyl)piperidin-4-yl)amino)pyridin-4-yl)methanone] | 15 |  |  |  | 3.2 | 1040
11 | CCOC(=O)N1CCC(Nc2cc(C(=O)N3CC[C@H](N4CCc5ccccc5C4)[C@@H](O)C3)c(F)cn2)CC1 [Example 106, ethyl 4-((4-((3S,4S)-4-(3,4-dihydroisoquinolin-2(1H)-yl)-3-hydroxypiperidine-1-carbonyl)-5-fluoropyridin-2-yl)amino)piperidine-1-carboxylate] | 6.2 |  |  |  | 1.9 | 496

— US12595248B2, “PRMT5 inhibitors” (Merck Sharp & Dohme LLC, priority 2019, dated 2026)
